# Results reported in patent US10590422B2, “Anticancer therapeutic intervention” (PHYZAT BIOPHARMACEUTICALS, LDA., priority 2017, dated 2020).
# Assays:
# [1] = tested on: LAT1 mRNA; assay: LAT1 gene expression (RT-qPCR) after LAT1 gene silencing in human colon cancer HTC-116 cells; type: cell-based; details: treatment 6 h
# Procedure: SK-HEP-1, T24, HT-1080 and HCT-116 cell lines were maintained in a humidified atmosphere of 5% CO2 at 37° C. SK-HEP-1 cells were grown in RPMI-1640 (Sigma, St. Louis, Mo.) supplemented with 20% fetal bovine serum (FBS) (Gibco, UK), 100 U/mL penicillin G, 0.25 μg/mL amphotericin B, 100 μg/mL streptomycin (Gibco, UK), 25 mM sodium bicarbonate (Merck, Germany) and 25 mM N-2-hydroxyethylpiperazine-N′-2-ethanosulfonic acid (HEPES) (Sigma, St. Louis, Mo.). T24 and HT-1080 cells were grown, respectively, in Dulbecco's Modified Eagle's Medium (DMEM)—high glucose (Sigma, St. Louis, Mo.) and DMEM—low glucose (Sigma, St. Louis, Mo.), supplemented with 10% FBS (Gibco, UK), 100 U/mL penicillin G, 0.25 μg/mL amphotericin B, 100 μg/mL streptomycin (Gibco, UK), 25 mM sodium bicarbonate (Merck, Germany) and 25 mM HEPES (Sigma, St. Louis, Mo.). HCT-116 cells were grown in McCoy's 5A (Sigma, St. Louis, Mo.) supplemented with 10% FBS (Gibco, UK), 100 U/mL penicillin G, 0.25 μg/mL amphotericin B, 100 μg/mL streptomycin (Gibco, UK), 25 mM sodium bicarbonate (Merck, Germany) and 25 mM HEPES (Sigma, St. Louis, Mo.). For all cell lines the medium was changed every 2 days, and cells reached confluence 3-4 days after initial seeding. For subculturing, cells were dissociated with 0.25% trypsin-ethylenediaminetetraacetic acid (EDTA) (Sigma, St. Louis, Mo.), split 1:15 or 1:20 and subcultured in a 21-cm^2 growth area (Sarstedt, Germany).
# Total RNA was isolated and purified using the SV Total RNA Isolation System (Promega, USA) according to manufacturer's instructions. RNA quality and concentration were verified in the NanoDrop ND1000 Spectrophotometer (Thermo Scientific, USA), and RNA integrity and genomic DNA contamination were evaluated by agarose gel electrophoresis. Total RNA (1 μg) was converted into cDNA using the Maxima Scientific First Strand cDNA Synthesis Kit for RT-qPCR (Thermo Scientific, USA), according to instructions. The following protocol was used: 1st step, 10 min at 25° C.; 2nd step, 15 min at 50° C.; 3rd step, 5 min at 85° C. cDNA was used for qPCR analysis using Maxima SYBR Green qPCR Master Mix (Thermo Scientific, USA) in the StepOnePlus instrument (Applied Biosystems, USA). QuantiTect Primer Assay for LAT1 and ASCT2 and for the endogenous control gene GAPDH (Quiagen, Germany) were used. The qPCR reaction was performed in 96-well PCR plates (Sarstedt, Germany) as follows: one cycle of 10 min at 95° C., followed by 40 PCR cycles at 95° C. 15 s and 60° C. 60 s. […] No template controls were always evaluated for each target gene. Quantification cycle (Cq) values were generated automatically by the StepOnePlus 2.3 Software and the ratio of the target gene was expressed in comparison to the endogenous control gene GAPDH.
# (§1) Cells were plated in 24-well (Sarstedt, Germany) or 6-well plates (Sarstedt, Germany) or 96-well plates with black walls clear bottom (BD Biosciences, USA) and incubated 24 h under normal growth conditions. siRNAs against LAT1 and transfection agent were diluted at desired concentrations and mixed according to transfection agent manufacturer's instructions. The mixture was incubated 20 min at RT for siRNA-complex formation, after which it was added to the cells and incubated at 37° C., 5% CO2. After the incubation period, serum and antibiotic was restored and cells were further incubated at normal conditions for the desired time points until evaluation of LAT1 activity or LAT1 expression (immunoblotting and RT-qPCR).
# [2] = tested on: LAT1; assay: LAT1 activity: [^14C]-L-leucine uptake in fibrosarcoma HT-1080 cells after LAT1 gene silencing; type: cell-based, human; details: 5 nM siRNA, treatment 6 h, at 48 h, 0.4% Lipofectamine 2000, FIG. 8A
# Procedure: (§2) Cells were plated in 24-well plates (Sarstedt, Germany) and grown until confluence was reached. On the day of the experiment, cell culture medium was aspirated and cells were preincubated for 15 min in Hanks' medium (NaCl 140 mM, KCl 5 mM, MgSO4.7H2O 0.8 mM, K2HPO4 0.33 mM, KH2PO4 0.44 mM, MgCl2.6H2O 1 mM, CaCl2) 0.025 mM, Tris-HCl 9.75 mM, pH 7.4). Uptake was initiated by addition of Hanks' medium with 0.25 μM [^14C]-L-leucine in the absence and in the presence of 3 mM unlabeled L-leucine. During preincubation and incubation cells were continuously shaken and maintained at 37° C. Uptake was terminated after 1 min by rapid removal of uptake solution by means of a vacuum pump connected to a Pasteur pipette, followed by a rapid wash with Hanks' medium. Subsequently, cells were solubilized in 0.1% vol/vol Triton X-100 (dissolved in 5 mM Tris-HCl, pH 7.4), and radioactivity was measured by liquid scintillation counting.
# as §1
# [3] = tested on: ASCT2; assay: ASCT2 activity: [^14C]-L-alanine uptake in fibrosarcoma HT-1080 cells after ASCT2 gene silencing; type: cell-based, human; details: at 48 h
# Procedure: as §2, with “the experiment, Cell culture medium” for “the experiment, cell culture medium”, “Hanks' medium (ChCl 140 mM,” for “Hanks' medium (NaCl 140 mM,”, “initiated by the addition of” for “initiated by addition of”, “0.25 μM [^14C]-L-alanine in the” for “0.25 μM [^14C]-L-leucine in the”, “mM unlabeled L-alanin. During preincubation” for “mM unlabeled L-leucine. During preincubation”
# as §1, with “ASCT2” for “LAT1”
Substance,"LAT1 mRNA relative abundance ([1]; 5, 25 and 45 nM, concentration dependent, 0.5% Lipofectamine 2000, Lipofectamine RNAiMAX or Injectin, at 72 h, FIGS. 10A and 10B)","LAT1 mRNA relative abundance ([1]; 5 or 25 nM siRNA, at 24 h or 48 h, 0.5% Lipofectamine 2000, FIGS. 9A and 9C)","LAT1 mRNA relative abundance ([1]; 72 h, 0.17% Lipofectamine 2000 or 0.1% Injectin, FIG. 19A)",[^14C]-L-leucine (0.25 μM) uptake at initial rate of uptake (1 min) [2],"Effect on [^14C]-L-alanine uptake compared with SEQ ID NO: 267/397/398 ([3]; HT-1080 cells, 5 nM, p<0.05)","[^14C]-L-alanine (0.25 μM) uptake at initial rate of uptake (1 min) ([3]; fibrosarcoma HT-1080 cells, 5 nM siRNA, treatment 6 h, 0.4% Lipofectamine 2000, FIG. 8B)"
58/387/388 (sense CUUCGCCACCUACCUGCUCAATT; antisense UUGAGCAGGUAGGUGGCGAAGTT; siRNA; sugars by position and backbone not given here; further chemistry not fully specified),decreased,decreased,significantly decreased,decreased,–,–
278/403/404 (sense UGCCACGGUCGCCUCUGAGAATT; antisense UUCUCAGAGGCGACCGUGGCATT; siRNA; sugars by position and backbone not given here; further chemistry not fully specified),–,–,–,–,significantly greater,decreased
